# Measured values taken from patent publication US9119780B2, “Triggerable compositions for two-stage, controlled release of proactive chemistry” (Kimberly-Clark Worldwide, Inc., priority 2013, dated 2015).
# Conditions: exposure to liquid water under ambient conditions
# Description: The relative hydrophobicity and hydrophilicity of the R groups can be easily adjusted to tailor the hydrolysis rate upon exposure to aqueous medium, and therefore the release rate of the active R*OH.
row,Compound,hydrolysis rate
1,CC1CCC(C(C)C)C(OC(=O)c2ccc[n+](C)c2)C1.[Cl-] (centres unmarked),hydrolyzed rapidly
2,Cc1ccc(C(C)C)c(OC(=O)c2ccc[n+](C)c2)c1.[Cl-],hydrolyzed rapidly
